According to patent US7601736B2, “Pyridine derivatives, a process for their preparation and a pharmaceutical composition containing the same” (SK Chemicals Co., Ltd., priority 2003, dated 2009):

Legend:
TNF-α [1] = assay: Cytokine inhibitory activity in animal model (LPS-treated SD rats), plasma TNF-α; assay type: in vivo, Sprague Dawley (SD) rats; conditions: for inhibition in vivo at 40 mg/kg: Rattus norvegicus, 2 h, read-out: TNF-α Inhibition Rate (Conc.); for inhibition in vivo at 40 mg/kg / TNF-α Inhibition Rate (Conc.): SD rats, oral, LPS, 40 mg/kg; for inhibitory activity on production of TNF-α compared to Indomethacin: rat model, in words
Experimental: Sprague Dawley (SD) rats with body weights of about 180 to about 200 g were fasted (free drinking) and then tested. Test compounds were administered orally at 40 mg/kg and then abdominally administered with LPS 1 μg/mL after 1 hour. After 2 hours, the rats were sacrificed and bloods were collected from abdominal vein, stored at room temperature for about 2 hours, and then centrifuged at 12,000 rpm for about 2 minutes. Thus produced plasma was respectively collected and its TNF-α in each plasma was quantitated using mouse TNF-α ELISA kit based on the amount of recombinant TNF-α in rats. The plate used was coated with anti-rat TNF-α monoclone IgG antibodies. Likewise, for the test of IL-1α, IL-1α in each plasma was quantitated using the above plasma and mouse IL-1α ELISA kit based on the amount of recombinant IL-1α in rats. The plate used was coated with anti-rat IL-1α monoclone IgG antibodies. Further, for the test of IL-6, IL-6 in each plasma was quantitated using the above plasma and mouse IL-6 ELISA kit based on the amount of recombinant IL-6 in rats. Further, for the test of INF-γ, INF-γ in each plasma was quantitated using the above plasma and mouse INF-γ ELISA kit based on the amount of recombinant INF-γ in rats. The plate used was coated with anti-rat INF-γ monoclone IgG antibodies. From the above tests, inhibitory rates on the expression of each cytokine were obtained and they were compared to that of Indomethacin.

TNF-α [2] = assay: Cytokine inhibitory activity in cells: LPS-induced TNF-α in RAW 264.7; assay type: cell-based, murine; conditions: for inhibition at 10 µM / inhibition at 100 µM / inhibition at 1000 µM / inhibition at 1 µM: Mus musculus, RAW264.7, read-out: TNF-α Inhibition Rate (%); for inhibition at 10 µM / inhibition at 100 µM / inhibition at 1000 µM / TNF-α Inhibition Rate (%) / inhibition at 1 µM: RAW 264.7, LPS 1 μg/mL; for inhibitory activity in RAW 264.7 cell line on the production of TNF-α, in words: compared to the control compounds
Experimental: General reagents used were purchased from Sigma-Aldrich chem. Co. and cytokine inhibitory activities were tested as follows. Mediums and reagents used in cell culture were purchased from GIBCO BRL (USA), and mouse TNF-α ELISA kit was purchased from R&D system (USA). The apparatus used ELISA reader (Spectra max-Plus 384, Molecular Device, USA).
Murine macrophage cell line RAW 264.7 was kindly provided by Korean Tissue Culture Center (KTCC). The cell line was cultured in DMEM medium containing 10% FBS, in a cell culturing device at the condition of 37° C., 5% CO2. First, murine RAW 264.7 was cultured in DMEM medium containing 10% FBS for about 24 hours, and cells were planted 200 μL each in 96 well plates at the concentration of 5×10^5/mL and cultured for about 24 hours. Then, test compounds were treated at various concentrations and then reacted at 37° C. for about 1 hour, wherein 1 μg/mL of lipopolysaccharide (LPS) was added thereto and reacted at 37° C. for about 12 hours. The supernatant was recovered and the amount of murine TNF-α on the medium was quantitated using ELISA kit. Thalidomide was respectively used as a positive and a negative control to compare the activities and the results are shown in the following tables 4a -4c.

Compound | inhibition in vivo at 40 mg/kg (TNF-α [1]) [%] | inhibitory activity on production of TNF-α compared to Indomethacin (TNF-α [1]) | inhibition at 10 µM (TNF-α [2]; test conc. 10 μM) [%] | inhibition at 100 µM (TNF-α [2]; test conc. 100 μM) [%] | inhibition at 1000 µM (TNF-α [2]; test conc. 1 mM) [%] | TNF-α Inhibition Rate (Conc.) (TNF-α [1]) | TNF-α Inhibition Rate (%) (TNF-α [2]; test conc. 1 μM) | TNF-α Inhibition Rate (%) (TNF-α [2]; test conc. 10 μM) | TNF-α Inhibition Rate (%) (TNF-α [2]; test conc. 100 μM) | TNF-α Inhibition Rate (%) (TNF-α [2]; test conc. 1 mM) | inhibition at 1 µM (TNF-α [2]; test conc. 1 μM) [%] | inhibitory activity in RAW 264.7 cell line on the production of TNF-α, in words (TNF-α [2])
Cc1cc2c(c(N3CCOCC3)n1)C(=O)OCC2 [Ex. 33, 6-methyl-8-morpholine-4-yl-3,4-dihydro-pyrano[3,4-c]pyridine-1-on] | 90 | 1.5 or 2 times greater | 9 | 18 | 29 | – | – | – | – | – | – | –
O=C1c2cnccc2CCN1Cc1ccccc1 [Ex. 117, 2-benzyl-3,4-dihydro-2H-[2,7]naphtyridine-1-on] | – | – | – | – | – | 69% (40 mg/kg) | 10 | 18 | 29 | 35 | – | –
COc1nc(-c2ccccc2)cc2c1C(=O)OCC2 [Ex. 79, 8-methoxy-6-phenyl-3,4-dihydro-pyrano[3,4-c]pyridine-1-on] | 78 | 1.5 or 2 times greater | 8 | 94 | 100 | – | – | – | – | – | 76 | superiorities over to the control compounds
Cc1cc2c(c(N)n1)C(=O)OCC2 [Ex. 53, 8-amino-6-methyl-3,4-dihydro-pyrano[3,4-c]pyridine-1-on] | 53 | – | 100 | 100 | 100 | – | – | – | – | – | 85 | superiorities over to the control compounds
Cc1cc2c(c(-c3ccc(F)cc3)n1)C(=O)OCC2 [Ex. 30, 8-(4-fluorophenyl)-6-methyl-3,4-dihydro-pyrano[3,4-c]pyridine-1-on] | 79 | 1.5 or 2 times greater | 100 | 100 | 100 | – | – | – | – | – | 100 | superiorities over to the control compounds
Cc1cc2c(c(N3CCCCC3)n1)C(=O)OCC2 [Ex. 32, 6-methyl-8-piperidine-1-yl-3,4-dihydro-pyrano[3,4-c]pyridine-1-on] | 74 | 1.5 or 2 times greater | 78 | 89 | 100 | – | – | – | – | – | 69 | –
Cc1nc(-c2ccccc2)cc2c1C(=O)OCC2 [Ex. 77, 8-methyl-6-phenyl-3,4-dihydro-pyrano[3,4-c]pyridine-1-on] | 66 | – | 76 | 89 | 100 | – | – | – | – | – | 68 | superiorities over to the control compounds
COc1ccc(CN2CCc3ccncc3C2=O)cc1 [Ex. 115, 2-(4methoxy-benzyl)-3,4-dihydro-2H-[2,7]naphtyridine-1-on] | – | – | – | – | – | 43% (40 mg/kg) | 50 | 59 | 65 | 78 | – | –
CC(=O)Oc1nc(C)cc2c1C(=O)OCC2 [Ex. 21, 6-methyl-1-oxo-3,4-dihydro-1H-pyrano[3,4-c]pyridine-8-yl acetic ester] | – | 1.5 or 2 times greater | – | – | – | 93% (40 mg/kg) | 9 | 15 | 34 | 77 | – | –
CC(=O)Oc1nc(-c2ccccc2)cc2c1C(=O)OCC2 [Ex. 78, 1-oxo-6phenyl-3,4-dihydro-1H-pyrano[3,4-c]pyridine-8-yl acetic ester] | – | – | – | – | – | 68% (40 mg/kg) | 79 | 85 | 98 | 100 | – | superiorities over to the control compounds
